# Reference: patent US10294202B2, “Pyrrolidinones as herbicides” (FMC Corporation, priority 2013, dated 2019)
# Assays:
# [1] = tested on: velvetleaf; assay: Test C pre-/postemergence herbicide test; type: in vivo, Abutilon theophrasti
# Outline: (§1)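 Visual rating, 0 (no effect) to 100 (complete control), versus untreated controls after 13 to 15 days in the greenhouse. Pre: seeds in loam/sand, sprayed at planting. Post: 1- to 4-leaf plants (2 to 18 cm) in peat-based mix. Compounds in non-phytotoxic solvent plus surfactant.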
# [2] = tested on: corn; assay: Test A pre-/postemergence herbicide test; type: in vivo, Zea mays; conditions: Postemergence
# Outline: (§2)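 Seeds sown in loam soil/sand blend received a preemergence directed soil spray of test chemical in non-phytotoxic solvent with surfactant; postemergence plants (2–10 cm, one- to two-leaf stage) were sprayed with the same formulation. After about 10 days in greenhouse, injury was rated visually versus untreated controls, 0 (no effect) to 100 (complete control).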
# [3] = tested on: rice; assay: Test B flooded paddy test; type: in vivo, Oryza sativa; conditions: Flood, scale of 0 to 100 where 0 is no effect and 100 is complete control
# Outline: (§3)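 In-water application to pots flooded 3 cm deep, plants at 2-leaf stage. Held in greenhouse 13–15 days at constant flood depth. Scored 0–100 by eye against controls.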
# [4] = tested on: foxtail, giant; assay: Test C pre-/postemergence herbicide test; type: in vivo, Setaria faberii
# Outline: as §1
# [5] = tested on: giant foxtail; assay: Test A pre-/postemergence herbicide test; type: in vivo, Setaria faberii
# Outline: as §2
# [6] = tested on: lambsquarters; assay: Test C pre-/postemergence herbicide test; type: in vivo, Chenopodium album
# Outline: as §1
# [7] = tested on: barnyardgrass; assay: Test A pre-/postemergence herbicide test; type: in vivo, Echinochloa crus-galli
# Outline: as §2
# [8] = tested on: nutsedge, yellow; assay: Test C pre-/postemergence herbicide test; type: in vivo, Cyperus esculentus
# Outline: as §1
# [9] = tested on: sedge, umbrella; assay: Test B flooded paddy test; type: in vivo, Cyperus difformis; conditions: Flood, scale of 0 to 100 where 0 is no effect and 100 is complete control
# Outline: as §3
# [10] = tested on: morningglory; assay: Test C pre-/postemergence herbicide test; type: in vivo, Ipomoea coccinea
# Outline: as §1
# [11] = tested on: wheat (winter wheat); assay: Test C pre-/postemergence herbicide test; type: in vivo, Triticum aestivum
# Outline: as §1
# [12] = Preemergence, 62 g ai/ha, scale 0 to 100 (0 no effect, 100 complete control)
# [13] = Preemergence, 125 g ai/ha, scale 0 to 100
# [14] = 125 g ai/ha, visual rating on 0 to 100 scale (0 no effect, 100 complete control), approx. 10 days
# [15] = 500 g ai/ha, 0 to 100 scale (0 no effect, 100 complete control)
# [16] = Preemergence, 31 g ai/ha, scale 0 to 100, 0 is no effect and 100 is complete control
# [17] = Postemergence, 125 g ai/ha, visual rating on 0 to 100 scale (0 no effect, 100 complete control), approx. 10 days
# [18] = Postemergence, 500 g ai/ha, 0 to 100 scale (0 no effect, 100 complete control)
# [19] = Preemergence, 125 g ai/ha, 0 to 100 scale where 0 is no effect and 100 is complete control
# [20] = Preemergence, 500 g ai/ha, visual rating on 0 to 100 scale (0 no effect, 100 complete control)
# [21] = Postemergence, 31 g ai/ha, scale 0 to 100 (0 no effect, 100 complete control)
# [22] = Postemergence, 62 g ai/ha, scale 0 (no effect) to 100 (complete control)
# [23] = Postemergence, 125 g ai/ha, scale 0 to 100 (0 no effect, 100 complete control)
# [24] = Postemergence, 250 g ai/ha, scale 0 to 100 (0 no effect, 100 complete control)
compound,measurement,setting,value
CC(C)c1cccc(C2CNC(=O)C2C(=O)Nc2ccccc2F)c1 (centres unmarked) [Compound 318],Velvetleaf plant response rating,[1]; [12],10
same,"Plant response rating, Velvetleaf",[1]; [13],25
same,"Plant response rating, Corn",[2]; [14],20
same,"Plant response rating, Corn",[2]; [15],50
same,"Plant response rating, Rice",[3]; 500 g ai/ha,15
same,"Foxtail, Giant plant response rating",[4]; [16],10
same,"Foxtail, Giant plant response rating",[4]; [12],70
same,"Plant response rating, Foxtail, Giant",[4]; [13],75
same,"Plant response rating (scale of 0 to 100), Foxtail, Giant","[4]; Preemergence, 250 g ai/ha",90
same,"Plant response rating, Foxtail, Giant",[5]; [17],40
same,"Plant response rating, Foxtail, Giant",[5]; [18],70
same,"Plant response rating, Foxtail, Giant",[5]; [19],90
same,"Foxtail, Giant plant response rating",[5]; [20],90
same,Lambsquarters plant response rating,[6]; [16],10
same,Lambsquarters plant response rating,[6]; [12],55
same,"Plant response rating, Lambsquarters",[6]; [13],50
same,"Plant response rating (scale of 0 to 100), Lambsquarters","[6]; Preemergence, 250 g ai/ha",60
same,"Plant response rating, Barnyardgrass",[7]; [17],90
same,"Plant response rating, Barnyardgrass",[7]; [18],90
same,"Plant response rating, Barnyardgrass",[7]; [19],90
same,Barnyardgrass plant response rating,[7]; [20],90
same,"Nutsedge, Yellow plant response rating",[8]; [16],0
same,"Nutsedge, Yellow plant response rating",[8]; [12],0
same,"Plant response rating, Nutsedge, Yellow",[8]; [13],0
same,"Plant response rating (scale of 0 to 100), Nutsedge, Yellow","[8]; Preemergence, 250 g ai/ha",0
same,"Plant response rating, Sedge, Umbrella",[9]; 500 g ai/ha,0
same,Morningglory plant response rating,[10]; [16],30
same,Morningglory plant response rating,[10]; [12],40
same,"Plant response rating, Morningglory",[10]; [13],30
same,"Plant response rating (scale of 0 to 100), Morningglory","[10]; Preemergence, 250 g ai/ha",40
same,Wheat plant response rating,[11]; [12],0
same,"Plant response rating, Wheat",[11]; [13],5
CC(C)c1cccc(C2CNC(=O)C2C(=O)Nc2cccc(F)c2F)c1 (centres unmarked) [Compound 319],Velvetleaf plant response rating,[1]; [12],20
same,"Plant response rating, Velvetleaf",[1]; [13],45
same,"Plant response rating, Corn",[2]; [14],40
same,"Plant response rating, Corn",[2]; [15],80
same,"Plant response rating, Rice",[3]; 500 g ai/ha,0
same,"Foxtail, Giant plant response rating",[4]; [16],70
same,"Foxtail, Giant plant response rating",[4]; [12],85
same,"Plant response rating, Foxtail, Giant",[4]; [13],95
same,"Plant response rating (scale of 0 to 100), Foxtail, Giant","[4]; Preemergence, 250 g ai/ha",95
same,"Plant response rating, Foxtail, Giant",[5]; [17],50
same,"Plant response rating, Foxtail, Giant",[5]; [18],90
same,"Plant response rating, Foxtail, Giant",[5]; [19],90
same,"Foxtail, Giant plant response rating",[5]; [20],90
same,Lambsquarters plant response rating,[6]; [16],60
same,Lambsquarters plant response rating,[6]; [12],65
same,"Plant response rating, Lambsquarters",[6]; [13],65
same,"Plant response rating (scale of 0 to 100), Lambsquarters","[6]; Preemergence, 250 g ai/ha",75
same,"Plant response rating, Barnyardgrass",[7]; [17],90
same,"Plant response rating, Barnyardgrass",[7]; [18],90
same,"Plant response rating, Barnyardgrass",[7]; [19],90
same,Barnyardgrass plant response rating,[7]; [20],90
same,"Nutsedge, Yellow plant response rating",[8]; [16],0
same,"Nutsedge, Yellow plant response rating",[8]; [12],0
same,"Plant response rating, Nutsedge, Yellow",[8]; [13],0
same,"Plant response rating (scale of 0 to 100), Nutsedge, Yellow","[8]; Preemergence, 250 g ai/ha",30
same,"Plant response rating, Sedge, Umbrella",[9]; 500 g ai/ha,0
same,Morningglory plant response rating,[10]; [16],55
same,Morningglory plant response rating,[10]; [12],40
same,"Plant response rating, Morningglory",[10]; [13],45
same,"Plant response rating (scale of 0 to 100), Morningglory","[10]; Preemergence, 250 g ai/ha",40
same,Wheat plant response rating,[11]; [12],0
same,"Plant response rating, Wheat",[11]; [13],10
O=C1NCC(c2cccc(OC(F)F)c2)C1C(=O)Nc1ccccc1F (centres unmarked) [Compound 323],"Plant response rating, Velvetleaf",[1]; [21],0
same,"Plant response rating, Velvetleaf",[1]; [22],20
same,"Plant response rating, Velvetleaf",[1]; [23],0
same,"Plant response rating, Velvetleaf",[1]; [24],0
same,Velvetleaf plant response rating,[1]; [12],15
same,"Plant response rating, Velvetleaf",[1]; [13],40
same,"Plant response rating, Corn",[2]; [14],70
same,"Plant response rating, Corn",[2]; [15],90
same,"Plant response rating, Rice",[3]; 500 g ai/ha,20
same,"Plant response rating, Foxtail, Giant",[4]; [21],0
same,"Plant response rating, Foxtail, Giant",[4]; [22],0
same,"Plant response rating, Foxtail, Giant",[4]; [23],35
same,"Plant response rating, Foxtail, Giant",[4]; [24],70
same,"Foxtail, Giant plant response rating",[4]; [16],90
same,"Foxtail, Giant plant response rating",[4]; [12],95
same,"Plant response rating, Foxtail, Giant",[4]; [13],95
same,"Plant response rating (scale of 0 to 100), Foxtail, Giant","[4]; Preemergence, 250 g ai/ha",98
same,"Plant response rating, Foxtail, Giant",[5]; [17],90
same,"Plant response rating, Foxtail, Giant",[5]; [18],90
same,"Plant response rating, Foxtail, Giant",[5]; [19],90
same,"Foxtail, Giant plant response rating",[5]; [20],90
same,"Plant response rating, Lambsquarters",[6]; [21],10
same,"Plant response rating, Lambsquarters",[6]; [22],10
same,"Plant response rating, Lambsquarters",[6]; [23],65
same,"Plant response rating, Lambsquarters",[6]; [24],65
same,Lambsquarters plant response rating,[6]; [16],40
same,Lambsquarters plant response rating,[6]; [12],50
same,"Plant response rating, Lambsquarters",[6]; [13],75
same,"Plant response rating (scale of 0 to 100), Lambsquarters","[6]; Preemergence, 250 g ai/ha",95
same,"Plant response rating, Barnyardgrass",[7]; [17],90
same,"Plant response rating, Barnyardgrass",[7]; [18],90
same,"Plant response rating, Barnyardgrass",[7]; [19],90
same,Barnyardgrass plant response rating,[7]; [20],90
same,"Plant response rating, Nutsedge, Yellow",[8]; [21],0
same,"Plant response rating, Nutsedge, Yellow",[8]; [22],0
same,"Plant response rating, Nutsedge, Yellow",[8]; [23],0
same,"Plant response rating, Nutsedge, Yellow",[8]; [24],0
same,"Nutsedge, Yellow plant response rating",[8]; [16],20
same,"Nutsedge, Yellow plant response rating",[8]; [12],25
same,"Plant response rating, Nutsedge, Yellow",[8]; [13],25
same,"Plant response rating (scale of 0 to 100), Nutsedge, Yellow","[8]; Preemergence, 250 g ai/ha",75
same,"Plant response rating, Sedge, Umbrella",[9]; 500 g ai/ha,0
same,"Plant response rating, Morningglory",[10]; [21],0
same,"Plant response rating, Morningglory",[10]; [22],25
same,"Plant response rating, Morningglory",[10]; [23],5
same,"Plant response rating, Morningglory",[10]; [24],25
same,Morningglory plant response rating,[10]; [16],0
same,Morningglory plant response rating,[10]; [12],0
same,"Plant response rating, Morningglory",[10]; [13],0
same,"Plant response rating (scale of 0 to 100), Morningglory","[10]; Preemergence, 250 g ai/ha",30
same,"Plant response rating, Wheat",[11]; [21],0
same,"Plant response rating, Wheat",[11]; [22],0
same,"Plant response rating, Wheat",[11]; [23],0
same,"Plant response rating, Wheat",[11]; [24],0
same,Wheat plant response rating,[11]; [12],30
same,"Plant response rating, Wheat",[11]; [13],40
O=C1NCC(c2cccc(C(F)(F)F)c2)C1C(=O)Nc1ccc(F)c(F)c1F (centres unmarked) [Compound 345],Velvetleaf plant response rating,[1]; [12],0
same,"Plant response rating, Velvetleaf",[1]; [13],25
same,"Plant response rating, Corn",[2]; [14],80
same,"Plant response rating, Corn",[2]; [15],90
same,"Plant response rating, Rice",[3]; 1000 g ai/ha,0
same,"Foxtail, Giant plant response rating",[4]; [16],85
same,"Foxtail, Giant plant response rating",[4]; [12],90
same,"Plant response rating, Foxtail, Giant",[4]; [13],95
same,"Plant response rating (scale of 0 to 100), Foxtail, Giant","[4]; Preemergence, 250 g ai/ha",98
same,"Plant response rating, Foxtail, Giant",[5]; [17],90
same,"Plant response rating, Foxtail, Giant",[5]; [18],90
same,"Plant response rating, Foxtail, Giant",[5]; [19],90
same,"Foxtail, Giant plant response rating",[5]; [20],90
same,Lambsquarters plant response rating,[6]; [16],100
same,Lambsquarters plant response rating,[6]; [12],75
same,"Plant response rating, Lambsquarters",[6]; [13],85
same,"Plant response rating (scale of 0 to 100), Lambsquarters","[6]; Preemergence, 250 g ai/ha",85
same,"Plant response rating, Barnyardgrass",[7]; [17],70
same,"Plant response rating, Barnyardgrass",[7]; [18],90
same,"Plant response rating, Barnyardgrass",[7]; [19],80
same,Barnyardgrass plant response rating,[7]; [20],90
same,"Nutsedge, Yellow plant response rating",[8]; [16],0
same,"Nutsedge, Yellow plant response rating",[8]; [12],0
same,"Plant response rating, Nutsedge, Yellow",[8]; [13],0
same,"Plant response rating (scale of 0 to 100), Nutsedge, Yellow","[8]; Preemergence, 250 g ai/ha",0
same,"Plant response rating, Sedge, Umbrella",[9]; 1000 g ai/ha,0
same,Morningglory plant response rating,[10]; [16],25
same,Morningglory plant response rating,[10]; [12],0
same,"Plant response rating, Morningglory",[10]; [13],0
same,"Plant response rating (scale of 0 to 100), Morningglory","[10]; Preemergence, 250 g ai/ha",35
same,Wheat plant response rating,[11]; [12],10
same,"Plant response rating, Wheat",[11]; [13],70
